# According to patent publication US20130109682A1, “CYCLIC ETHER COMPOUNDS USEFUL AS KINASE INHIBITORS” (NOVARTIS AG, priority 2010, published 2013):
# Read-outs that look alike come from different tables or passages of the source.
# Experiments:
# Type in all cases: biochemical
# PDGFRaV561D kinase = PDGFRaV561D kinase (Homo sapiens, UniProt P16234, V561D); test: PDGFRaV561D kinase inhibition assay (LanthaScreen TR-FRET); details: read-out: PDGFRa IC50
# Protocol: PDGFRaV561D Kinase Inhibition Assay
# (§1) LanthaScreen™ is the detection of Time-Resolved Fluorescence Resonance Energy Transfer (TR-FRET) using lanthanide chelates to measure interactions between various binding partners. The application of TR-FRET to assay kinase activity was first described by Mathis (1995). A TR-FRET assay was used to measure PDGFRaV561D kinase inhibitory activity. The assay panel was run on a Biomek FX liquid handling workstations. To the assay plates containing […] compound or control solutions, 4.5 μL of buffer A (50 mM TRIS-HCl pH 7.4, 2 mM DTT, 0.02% Tween 20, 0.02 mM Na3VO4, H2O nanpure) including a generic concentration of ATP (2 μM f.c.) was added per well, followed by […] of buffer B (4 uM ATP in Buffer A) including a generic concentration of polyEAY (50 nM f.c.), PDGFRaV561D kinase, and divalent cations. Final concentration of kinase and cations were: [PDGFRaV561D kinase]=4.4 nM, [Mn]=10 mM. After 1 hour of incubation the kinase reactions were stopped by the addition of 4.5 μL of stop solution D (50 mM EDTA, 20 mM TRIS-HCl pH 7.4, 0.04% NP-40) immediately followed by 4.5 μL of buffer A (50 mM TRIS-HCl pH 7.4, 2 mM DTT, 0.02% Tween 20, 0.02 mM Na3VO4, H2O nanpure) including the Tb-labeled P-20 antibody to give a total detection volume of […]. After an incubation time of 45 min in the dark, the plates were transferred into the Pherastar fluorescence reader for counting. The effect of compound on the enzymatic activity was obtained from the linear progress curves and determined from one reading (end point measurement).
# PKCα = PKCα (Homo sapiens, UniProt P17252); test: PKCα kinase Caliper assay; details: read-out: PKC IC50
# Protocol: PKCα and cABLT315 Kinase Caliper Assays
# Assays were performed in 384 well microtiter plates. Each assay plate contained 8-point serial dilutions for test compounds, as well as two 16-point serial dilutions of staurosporine as reference compound, plus 16 high- and 16 low controls. Liquid handling and incubation steps were done on a Thermo CatX workstation equipped with a Innovadyne Nanodrop Express. Between pipetting steps, tips were cleaned in wash cycles using wash buffer. Plates with terminated kinase reactions were transferred to the Caliper LC3000 workstations for reading. Phosphorylated and unphosphorylated peptides were separated using the Caliper microfluidic mobilitishift technology and Kinase activities were calculated from the amounts of formed phospho-peptide.
# 1. 0.05 μA Compound (start with 1.8 mM in 90% DMSO/10% H2O)
# 2. +4.5 μl 2× peptide/ATP solution
# 3. +4.5 μl 2× enzyme solution
# 4. Incubate for 60 min at 30° C.
# 4. +16 μl stop/run buffer
# Independent of the kinase, all reactions were done performed in 50 mM HEPES, pH 7.5, 1 mM DTT, 0.02% Tween20, 0.02% BSA, and 0.6% DMSO.
# FLT3D835Y kinase = biological target: T1, FLT3D835Y kinase (Homo sapiens, UniProt P36888, D835Y); test: FLT3D835Y kinase inhibition assay (LanthaScreen TR-FRET); details: read-out: FLT3 IC50
# T1 sequence (P36888 27-993 D835Y): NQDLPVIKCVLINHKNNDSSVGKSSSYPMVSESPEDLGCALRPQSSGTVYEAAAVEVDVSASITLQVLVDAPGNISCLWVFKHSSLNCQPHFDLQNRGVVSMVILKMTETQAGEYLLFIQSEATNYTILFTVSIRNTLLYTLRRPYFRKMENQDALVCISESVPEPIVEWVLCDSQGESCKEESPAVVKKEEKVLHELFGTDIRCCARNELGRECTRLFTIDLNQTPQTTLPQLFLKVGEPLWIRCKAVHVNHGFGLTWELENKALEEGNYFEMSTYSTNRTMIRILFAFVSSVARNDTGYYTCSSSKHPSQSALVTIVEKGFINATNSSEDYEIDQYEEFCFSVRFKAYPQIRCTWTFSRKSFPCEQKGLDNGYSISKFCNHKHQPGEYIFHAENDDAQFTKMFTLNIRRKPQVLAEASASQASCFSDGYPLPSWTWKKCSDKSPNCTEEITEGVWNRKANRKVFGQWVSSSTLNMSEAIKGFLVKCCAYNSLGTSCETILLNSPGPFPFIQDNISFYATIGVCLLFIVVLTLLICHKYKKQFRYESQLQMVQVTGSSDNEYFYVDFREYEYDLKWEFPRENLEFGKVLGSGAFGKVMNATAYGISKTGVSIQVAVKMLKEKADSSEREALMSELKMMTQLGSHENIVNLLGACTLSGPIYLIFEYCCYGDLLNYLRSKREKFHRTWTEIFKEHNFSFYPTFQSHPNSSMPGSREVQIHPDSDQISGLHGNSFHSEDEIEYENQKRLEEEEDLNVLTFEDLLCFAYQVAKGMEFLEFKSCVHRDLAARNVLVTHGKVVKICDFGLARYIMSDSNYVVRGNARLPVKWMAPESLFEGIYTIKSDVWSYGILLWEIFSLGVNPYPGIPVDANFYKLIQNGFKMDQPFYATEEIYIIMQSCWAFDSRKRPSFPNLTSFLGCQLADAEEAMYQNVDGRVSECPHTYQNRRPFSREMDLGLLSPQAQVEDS
# Protocol: FLT3D835Y Kinase Inhibition Assay
# as §1, with “FLT3D835Y” for “PDGFRaV561D”, “[FLT3D835Y kinase]=5.7” for “[PDGFRaV561D kinase]=4.4”, “[Mg]=3 mM, [Mn]=3” for “[Mn]=10”
# PDGFRaV561D kinase, sequence (P16234 24-1089 V561D): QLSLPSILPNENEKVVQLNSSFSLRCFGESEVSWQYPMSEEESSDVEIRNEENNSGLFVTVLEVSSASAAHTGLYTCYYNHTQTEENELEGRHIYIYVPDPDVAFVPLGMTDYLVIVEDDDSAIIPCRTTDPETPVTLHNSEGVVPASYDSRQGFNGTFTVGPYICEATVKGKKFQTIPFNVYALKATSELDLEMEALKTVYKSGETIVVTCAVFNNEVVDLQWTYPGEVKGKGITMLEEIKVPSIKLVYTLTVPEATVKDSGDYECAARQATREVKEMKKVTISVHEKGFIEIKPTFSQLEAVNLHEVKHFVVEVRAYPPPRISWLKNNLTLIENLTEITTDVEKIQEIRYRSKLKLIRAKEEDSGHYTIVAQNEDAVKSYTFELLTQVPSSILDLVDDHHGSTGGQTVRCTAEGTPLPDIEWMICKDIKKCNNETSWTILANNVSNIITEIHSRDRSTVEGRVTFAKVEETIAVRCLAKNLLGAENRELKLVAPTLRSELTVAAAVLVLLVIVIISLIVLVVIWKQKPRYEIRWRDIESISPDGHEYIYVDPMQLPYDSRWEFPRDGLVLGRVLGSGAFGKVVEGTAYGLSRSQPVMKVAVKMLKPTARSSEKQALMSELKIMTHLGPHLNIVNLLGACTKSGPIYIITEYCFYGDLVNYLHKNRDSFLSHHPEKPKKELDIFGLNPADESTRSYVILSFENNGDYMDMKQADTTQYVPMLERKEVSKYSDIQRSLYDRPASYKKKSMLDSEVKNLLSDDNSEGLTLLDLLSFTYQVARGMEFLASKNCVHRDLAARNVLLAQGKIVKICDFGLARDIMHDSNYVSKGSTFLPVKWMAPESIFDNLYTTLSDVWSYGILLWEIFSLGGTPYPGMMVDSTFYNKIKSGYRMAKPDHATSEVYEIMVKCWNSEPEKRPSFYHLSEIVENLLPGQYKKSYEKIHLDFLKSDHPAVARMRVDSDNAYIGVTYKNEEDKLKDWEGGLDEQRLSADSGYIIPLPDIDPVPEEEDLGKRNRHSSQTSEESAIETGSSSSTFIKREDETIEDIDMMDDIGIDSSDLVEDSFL
Compound,IC50 (PDGFRaV561D kinase) [nM],IC50 (PKCα; PKCα Caliper assay) [nM],IC50 (FLT3D835Y kinase) [nM],IC50 (PKCα) [nM]
"CC(C)[C@@H]1O[C@H](c2ccncc2NC(=O)c2nc(-c3ccccc3)cnc2N)C[C@H](N)[C@H]1O [Example 240, 3-amino-N-(4-((2S,4S,5R,6S)-4-amino-5-hydroxy-6-isopropyltetrahydro-2H-pyran-2-yl)pyridin-3-yl)-6-phenylpyrazine-2-carboxamide]",7300,290,1200,–
"CC(C)[C@H]1O[C@@H](c2ccncc2NC(=O)c2nc(-c3ccccc3)cnc2N)C[C@@H](N)[C@@H]1O [Example 356, 3-amino-N-(4-((2R,4R,5S,6R)-4-amino-5-hydroxy-6-isopropyltetrahydro-2H-pyran-2-yl)pyridin-3-yl)-6-phenylpyrazine-2-carboxamide]",53,75,5.8,–
"Nc1ncc(-c2ccccc2)nc1C(=O)Nc1cnccc1[C@@H]1C[C@H](O)[C@]2(O)CCC[C@@H]2O1 [Example 186, 3-amino-N-(4-((2S,4S,4aR,7aS)-4,4a-dihydroxyoctahydrocyclopenta[b]pyran-2-yl)pyridin-3-yl)-6-phenylpyrazine-2-carboxamide]",> 10000,–,1600,760
"CC(C)(C)[C@H]1O[C@@H](c2ccncc2NC(=O)c2nc(-c3ccccc3)cnc2N)C[C@@H](N)[C@@H]1O [Example 354, 3-amino-N-(4-((2R,4R,5S,6R)-4-amino-6-tert-butyl-5-hydroxytetrahydro-2H-pyran-2-yl)pyridin-3-yl)-6-phenylpyrazine-2-carboxamide]",26,22,3.1,–
"CC1(C)C[C@@H](N)C[C@H](c2ccncc2NC(=O)c2nc(-c3ccccc3)cnc2N)O1 [Example 296, 3-amino-N-(4-((2R,4S)-4-amino-6,6-dimethyltetrahydro-2H-pyran-2-yl)pyridin-3-yl)-6-phenylpyrazine-2-carboxamide]",8.7,40,0.8,–
"N[C@H]1C[C@@H](c2ccncc2NC(=O)c2csc(-c3c(F)cccc3F)n2)O[C@H]2CCC[C@H]21 [Example 230, N-(4-((2S,4S,4aS,7aS)-4-aminooctahydrocyclopenta[b]pyran-2-yl)pyridin-3-yl)-2-(2,6-difluorophenyl)thiazole-4-carboxamide]",1500,1100,270,–
"C[C@H]1O[C@@H](c2ccncc2NC(=O)c2ccc(F)c(-c3c(F)cccc3F)n2)C[C@@H](N)[C@]1(C)O [Example 219, N-(4-((2R,4R,5S,6R)-4-amino-5-hydroxy-5,6-dimethyltetrahydro-2H-pyran-2-yl)pyridin-3-yl)-6-(2,6-difluorophenyl)-5-fluoropicolinamide]",630,> 10000,1700,–
"O=C(Nc1cnccc1[C@H]1C[C@@H](O)[C@@]2(O)CCCC[C@H]2O1)c1c[nH]cc(-c2ccccc2)c1=O [Example 178, N-(4-((2R,4R,4aS,8aR)-4,4a-dihydroxyoctahydro-2H-chromen-2-yl)pyridin-3-yl)-4-oxo-5-phenyl-1,4-dihydropyridine-3-carboxamide]",> 10000,–,> 10000,> 10000
"Nc1cnc(-c2c(F)cccc2F)nc1C(=O)Nc1cnccc1[C@H]1C[C@@H](N)[C@@]2(O)CCC[C@H]2O1 [Example 213, 5-amino-N-(4-((2R,4R,4aS,7aR)-4-amino-4a-hydroxyoctahydrocyclopenta[b]pyran-2-yl)pyridin-3-yl)-2-(2,6-difluorophenyl)pyrimidine-4-carboxamide]",4000,–,3500,> 10000
"C[C@H]1O[C@@H](c2ccncc2NC(=O)c2nc(-c3ccccc3)cnc2N)C[C@@H](N)[C@]1(C)O [Example 228, 3-amino-N-(4-((2R,4R,5S,6R)-4-amino-5-hydroxy-5,6-dimethyltetrahydro-2H-pyran-2-yl)pyridin-3-yl)-6-phenylpyrazine-2-carboxamide]",37,76,2.7,–
"O=C1CC[C@H]2O[C@@H](c3ccncc3NC(=O)c3ccc(F)c(-c4c(F)cccc4F)n3)C[C@@H](O)[C@@H]2N1 [Example 196, 6-(2,6-difluorophenyl)-5-fluoro-N-(4-((2R,4R,4aS,8aR)-4-hydroxy-6-oxooctahydro-2H-pyrano[3,2-b]pyridin-2-yl)pyridin-3-yl)picolinamide]",> 10000,–,> 10000,> 10000
"C[C@]1(O)[C@H](N)C[C@H](c2ccncc2NC(=O)c2nc(-c3ccccc3)cnc2N)OC12CC2 [Example 353, 3-amino-N-(4-((5R,7R,8S)-7-amino-8-hydroxy-8-methyl-4-oxaspiro[2.5]octan-5-yl)pyridin-3-yl)-6-phenylpyrazine-2-carboxamide]",760,84,95,–
"CCC[C@H]1O[C@@H](c2ccncc2NC(=O)c2nc(-c3ccccc3)cnc2N)C[C@@H](O)[C@@H]1O [Example 340, 3-amino-N-(4-((2R,4R,5S,6R)-4,5-dihydroxy-6-propyltetrahydro-2H-pyran-2-yl)pyridin-3-yl)-6-phenylpyrazine-2-carboxamide]",810,860,110,–
